Source: patent US20190365719A1, “COMBINATION TREATMENTS OF HSP90 INHIBITORS FOR ENHANCING TUMOR IMMUNOGENICITY AND METHODS OF USE THEREOF” (Massachusetts Institute of Technology, priority 2018, published 2019)

Tests used:
[1] = Plasma HSP90i concentration in mice by LC/MS; type: in vivo, C57Bl/6 and NOD-SCID mice; conditions: 0.5 mg/kg/day in drinking water, both strains (C57Bl/6 and NOD-SCID)
Method: For oral dosing with HSP90i, the average water consumption of the mice was calculated by measuring water bottle weight before and after 72 hours of housing to determine the average consumption per mouse, per day. Across all experiments, C57Cl/6 mice consumed approximately 4 mL every day. Using these water consumption values, and mouse weight, a 4 mg/mL stock solution of NVP-HSP990 (in 100% PEG400) was diluted directly into the drinking water to achieve a target dose of 0.5 mg/kg/day. HSP990 treatment was begun 72 hours prior to implantation of MC38 cells to allow the drug to reach steady state level prior to tumor challenge.
Serum NVP-HSP990 levels were analyzed by sacrificing mice, performing a cardiac puncture, and isolating approximately 500 μL of whole blood. Blood was transferred to EDTA-coated microtubes and placed on ice. After all samples were collected, they were spun at 10,000×g for 15 min. The supernatant plasma was collected and stored at −80° C. until further processing. 2×10 μL aliquots of serum from each animal was extracted with 40 μL of ice cold acetonitrile and shaken for 30 min at 4° C. The acetonitrile solvent was spiked with 10 nM imatinib as an internal standard for mass spectrometry. Following extraction, samples were spun at 20,000×g for 15 min and the de-proteinated supernatant transferred to a clean Eppendorf tube prior to mass spectrometry analysis. […]

[2] = tested on: SUM159, SKMEL, H838 cells; assay: Flow cytometry of MHC Class I on human tumor cell lines SUM159, SKMEL, H838; type: cell-based; conditions: low dose, 72 hours
Method: FIGS. 4A-4F are graphs showing low dose administration of HSP90i stimulates antigen presentation of tumor cells. […] FIG. 4C is a line graph showing relative MC38 cell number following exposure to increasing concentrations of Hsp90i; Live cell number was assessed with a standard metabolic dye-based (Alamar blue) assay and cell mass assessed by protein content using sulphorhodamine-B (SRB) assay. Representative histograms showing flow cytometric measurement of relative MHC Class I expression on the surface of triple-negative breast cancer (SUM159) (FIG. 4D), melanoma (SKMEL) (FIG. 4E), and lung adenocarcinoma (H838) (FIG. 4F) cells treated with DMSO (Veh) or low dose HSP990 for 72 hours.
MC38 cells were kindly provided by A. Sharpe from Dana Farber Cancer Institute. Cells were maintained in DMEM supplemented with 10% FBS and penicillin/streptomycin. SUM159, H838, SKMEL, and Colo cells were maintained in RPMI1640 supplemented with 10% FBS and penicillin/streptomycin. Cells were confirmed negative for mycoplasma contamination by PCR-based assay. […] Fluorescence as a measure of relative dye reduction was measured on an Envision plate reader (Perkin Elmer) with excitation at 544 nm and emission readings at 570 nm.
For analysis of MHC Class I surface expression, cells were seeded into 12 well plates (125,000/well). […] Cytometric data were plotted and analyzed with FloJo.

[3] = tested on: Ctrl and B2m KO MC38 cells; assay: Viability of Ctrl and B2m KO MC38 cells in culture, dye reduction assay; type: cell-based, mouse; conditions: 2-day exposure to increasing concentrations
Source text: FIGS. 6A-B are graphs showing anti-tumor activity of low-dose HSP90i is dependent on functional MHC Class I expression. Ctrl or B2m KO cells were generated by CRISPR-Cas9 mediated gene editing, and B2m KO cells were confirmed to no longer express MHC-I on the cell surface. FIG. 6A is a line graph showing relative number of viable Ctrl and B2m KO cells measured by standard dye reduction assay following 2-day exposure to increasing concentrations of HSP90i; FIG. 6B is a line graph showing size in mm^3 of Ctrl or B2m KO MC38 tumors in mice treated with vehicle (Veh, solid lines) or 0.5 mg/kg/day HSP90i (dotted lines) over 25 days post implantation.
For CRISPR/Cas9-mediated disruption of B2m, pSpCas9-P2A-GFP plasmid (Addgene #48138) was modified with a control sgRNA sequence ([…]) or an sgRNA targeting B2m ([…]). Log phase MC38 cells were transfected with Ctrl or B2m plasmids using Lipofectamine 2000 (Invitrogen) according to manufacturer's instructions. 24 hours later, single GFP positive cells were sorted into 96-well plates to isolate individual MC38 clones with the desired modification. After 2 weeks, isolated clones were tested by western blot to confirm loss of B2m expression. Ctrl and B2m clones were then passaged through syngeneic mice (C57/B16) to increase the uniformity of tumor establishment and progression in subsequent experiments.

**Q.** Which “plasma concentration of HSP90i” value [1] does the source give for `COc1cccc(-c2cc(F)ccc2[C@H]2Cc3nc(N)nc(C)c3C(=O)N2)n1` [NVP-HSP990] here?
**A.** ~20 nM

**Q.** What about the “MHC Class I expression on human tumor cell lines from breast, melanocytes and lung” value [2] of the same molecule?
**A.** induced upregulation of MHC Class I expression

**Q.** And the “sensitivity of Ctrl versus B2m KO MC38 cells in culture” value [3]?
**A.** no difference in sensitivity
